Data on 23 molecules can be found in patent publication US20240368209A1, “GEMCITABINE ANTICANCER DERIVATIVE AND ANTICANCER PHARMACEUTICAL USE” (ASCENTAWITS PHARMACEUTICALS, LTD., priority 2021, published 2024).

SMILES strings stand for the structures. Where two headings read alike, the source gives them in different places.

The term IC50 denotes the midpoint of a concentration-inhibition curve.

For the assay, the system named is H460 non-small cell lung cancer human tumor cell line. The assay is described as follows: In vitro human tumor cell line cytotoxicity (proliferation) assay on H460, CTG, with or without AST-3021. The class given is cell-based. To be noted: for IC50: Homo sapiens. As for the experimental part:
In vitro human tumor cell line cytotoxicity assay was used.
In vitro proliferation data on the H460 non-small cell lung cancer human tumor cell line (cell line which highly expresses AKR1C3) is reported below in the compound table.
IC50 values were obtained with the following steps:
Specifically, exponentially growing cells were seeded at a density of 2×10^3 cells/100 μL/well in a 96-well plate and incubated at 37° C. in 5% CO2, 95% air and 100% relative humidity for 24 hours. The test compound was administered alone: 24 hours after cell plating, the compound acted alone, 99 μL of growth medium per well was added, and 1 μL of the compound prepared at 200× was added, and the plate was shaken gently to ensure even mixing, then placed into an incubator of 37° C., 5% CO2. After further cultivation for 72 hours, the number of live cells was detected using CTG. The CTG detection method was as follows: the cell plate to be tested was placed at room temperature to equilibrate for 30 minutes, and 100 μL of medium per well was discarded. 25 μL of CTG reagent (CellTiter-Glo® kit) per well was added, and the plate was placed in a high-speed shaker to oscillate for 2 minutes, and placed at room temperature in the dark for 30 minutes. The chemiluminescence signal value was read using a multimode microplate reader, with a read time of 1000 ms.
Similarly, in order to further verify that the compounds were activated by human AKR1C3 (aldosterone reductase family 1 member C3), the effect of some of the compounds on the proliferation of H460 cancer cells was tested with pretreatment with a specific AKR1C3 enzyme inhibitor AST-3021 (3 μM). The detailed experimental procedure was as follows: 24 hours after cell plating, 98 μL of growth medium per well was added, and 1 μL of 200×compound AST-3021 was added to each well, and the plate was shaken gently to ensure even mixing, and then placed into an incubator; after 2 hours, 1 μL of the test compound prepared at 200× was added, and the plate was shaken gently to ensure even mixing and then laced into an incubator of 37° C., 5% CO2. The inhibitor used was compound 36, i.e.
in Flanagan et al., Bioorganic and Medicinal Chemistry (2014), page 962-977, and is referred to as AST-3021 in this invention. The values measured in this case are values corresponding to +AST-3021 IC50 (nM) in Table 1.
The value corresponding to +AST-3021 IC50 (nM) divided by the value corresponding to IC50 (nM) is the specific activation ratio. The relative magnitude of the specific activation ratio can be used to evaluate whether this compound is a cytotoxic compound activated by human AKR1C3 (aldosterone reductase family 1 member C3): when the specific activation ratio is less than 1, it is considered that the compound is not activated by human AKR1C3 (aldosterone reductase family 1 member C3); when the specific activation ratio is greater than 1, it is considered that the compound is activated by human AKR1C3 (aldosterone reductase family 1 member C3), and the higher the value, the higher the activation degree and the selectivity of AKR1C3.

Where [1] appears, read: NCI-H460, compound alone, 72 hours, read-out: IC50.
The mark [2] stands for this setting: NCI-H460, pretreatment with AKR1C3 inhibitor AST-3021 (3 μM), read-out: +AST-3021 IC50.

`CCNP(=O)(OCc1ccc([N+](=O)[O-])c(Oc2ccc(C(=O)N3CCCCC3)cc2)c1)OCC1OC(n2ccc(N)nc2=O)C(F)(F)C1O` (stereo not drawn) [Compound H13]: the “specific activation ratio (+AST-3021 IC50/IC50)” value (“specific activation ratio” for short) was 9.4. Also, the IC50 under setting [1] came out at 393 nM. Further, the 50% inhibitory concentration (IC50) under setting [2] amounted to 3680 nM.

`CCNP(=O)(OCc1ccc([N+](=O)[O-])c(Oc2ccc(C(=O)N3CCC(C(F)(F)F)CC3)cc2)c1)OCC1OC(n2ccc(N)nc2=O)C(F)(F)C1O` (stereo not drawn) [Compound H14]: the “specific activation ratio” value was 1.9. In addition, the IC50 under setting [1] is 1770 nM. The IC50 under setting [2] was 3300 nM.

On to `CCNP(=O)(OCc1ccc([N+](=O)[O-])c(Oc2cccc(C(=O)N3CCCCC3)c2)c1)OCC1OC(n2ccc(N)nc2=O)C(F)(F)C1O` (stereo not drawn) [Compound H15], for which the “specific activation ratio” value is 5.0. The IC50 under setting [1] came out at 486 nM. Moreover, the IC50 under setting [2] came out at 2420 nM.

`CCNP(=O)(OCc1ccc([N+](=O)[O-])c(Oc2cccc(C(=O)N3CCC(C(F)(F)F)CC3)c2)c1)OCC1OC(n2ccc(N)nc2=O)C(F)(F)C1O` (stereo not drawn) [Compound H16]: the “specific activation ratio” value is on record as 8.9. Also, the IC50 under setting [1] came out at 377 nM. Besides, the IC50 under setting [2] was determined as 3370 nM.

With `Nc1ccn(C2OC(COP(=O)(NC3CCCCC3)OCc3ccc([N+](=O)[O-])c(Oc4ccc(-c5ccc(F)cc5)c(F)c4)c3)C(O)C2(F)F)c(=O)n1` (stereo not drawn) [Compound H17], the “specific activation ratio” value was found to be 27.2. Under setting [1], the IC50 was 397 nM. The IC50 under setting [2] came out at 10800 nM.

On to `Nc1ccn(C2OC(COP(=O)(NC3CCCCC3)OCc3ccc([N+](=O)[O-])c(Oc4ccc(C(F)(F)F)cc4)c3)C(O)C2(F)F)c(=O)n1` (stereo not drawn) [Compound H18], for which the “specific activation ratio” value is recorded as 3.7. Under setting [1], the IC50 turned out to be 461 nM. Also, under setting [2], the IC50 is 1700 nM.

Turning to `CCNP(=O)(OCc1ccc([N+](=O)[O-])c(Oc2ccc3ncccc3c2)c1)OCC1OC(n2ccc(N)nc2=O)C(F)(F)C1O` (stereo not drawn) [Compound H19], the “specific activation ratio” value is 3.4. Besides, under setting [1], the IC50 was found to be 150 nM. Besides, under setting [2], the IC50 was found to be 510 nM.

With `CCNP(=O)(OCc1ccc([N+](=O)[O-])c(Oc2ccc3nc(C)sc3c2)c1)OCC1OC(n2ccc(N)nc2=O)C(F)(F)C1O` (stereo not drawn) [Compound H20], the “specific activation ratio” value was determined as 6.2. Besides, the IC50 under setting [1] was determined as 232 nM. In addition, the IC50 under setting [2] stood at 1430 nM.

In the case of `CCNP(=O)(OCC1OC(n2ccc(N)nc2=O)C(F)(F)C1O)OC(C)c1ccc([N+](=O)[O-])c(Oc2ccc(-c3ccc(F)cc3)c(F)c2)c1` (stereo not drawn) [Compound H21], the “specific activation ratio” value amounted to 34.8. Further, under setting [1], the IC50 was determined as 127 nM. Besides, the IC50 under setting [2] is 4410 nM.

Regarding `CC(OP(=O)(NCCBr)OCC1OC(n2ccc(N)nc2=O)C(F)(F)C1O)c1ccc([N+](=O)[O-])c(Oc2ccc(-c3ccc(F)cc3)c(F)c2)c1` (stereo not drawn) [Compound H22], the “specific activation ratio” value is given as 19.2. Further, the IC50 under setting [1] was 124 nM. Besides, the IC50 under setting [2] came to 2370 nM.

Turning to `CNP(=O)(OCC1OC(n2ccc(N)nc2=O)C(F)(F)C1O)OC(C)c1ccc([N+](=O)[O-])c(Oc2ccc(C(F)(F)F)cc2)c1` (stereo not drawn) [Compound H23], the “specific activation ratio” value worked out at 29.8. For the same molecule, under setting [1], the IC50 is 379 nM. Further, under setting [2], the IC50 came to 11300 nM.

With `CCNP(=O)(OCC1OC(n2ccc(N)nc2=O)C(F)(F)C1O)OC(C)c1ccc([N+](=O)[O-])c(Oc2ccc(C(=O)N3CCCCC3)cc2)c1` (stereo not drawn) [Compound H24], the “specific activation ratio” value worked out at 19.1. For the same molecule, the 50% inhibitory concentration (IC50) under setting [1] came to 1120 nM. Under setting [2], the concentration for half-maximal inhibition (IC50) came to 21400 nM.

Regarding `CCNP(=O)(OCC1OC(n2ccc(N)nc2=O)C(F)(F)C1O)OC(C)c1ccc([N+](=O)[O-])c(Oc2cccc(C(=O)N3CCCCC3)c2)c1` (stereo not drawn) [Compound H25], the “specific activation ratio” value was 9.6. Further, under setting [1], the IC50 amounted to 515 nM. Moreover, under setting [2], the IC50 was 4940 nM.

As for `CCNP(=O)(OCc1ccc([N+](=O)[O-])c(Oc2ccc(-c3ccc(F)cn3)cc2)c1)OCC1OC(n2ccc(N)nc2=O)C(F)(F)C1O` (stereo not drawn) [Compound H28], the “specific activation ratio” value is given as 20.4. Also, the IC50 under setting [1] is 233 nM. Also, the IC50 under setting [2] is 4760 nM.

For the molecule `Nc1ccn(C2OC(COP(=O)(NC3CCCC3)OCc3ccc([N+](=O)[O-])c(Oc4ccc(-c5ccc(F)cc5)c(F)c4)c3)C(O)C2(F)F)c(=O)n1` (stereo not drawn) [Compound H29], the “specific activation ratio” value is given as 47.17. In addition, the IC50 under setting [1] turned out to be 82.2 nM. For the same molecule, under setting [2], the concentration for half-maximal inhibition (IC50) is 3880 nM.

As to `CC(C)NP(=O)(OCc1ccc([N+](=O)[O-])c(Oc2cccc(C(=O)N3CCCCC3)c2)c1)OCC1OC(n2ccc(N)nc2=O)C(F)(F)C1O` (stereo not drawn) [Compound H35], the “specific activation ratio” value is listed as 8.6. Under setting [1], the IC50 came out at 454 nM. The IC50 under setting [2] amounted to 3900 nM.

For the molecule `CC(C)NP(=O)(OCc1ccc([N+](=O)[O-])c(Oc2ccc(C(=O)N3CCCCC3)cc2)c1)OCC1OC(n2ccc(N)nc2=O)C(F)(F)C1O` (stereo not drawn) [Compound H36], the “specific activation ratio” value is listed as 3.1. The IC50 under setting [1] amounted to 382 nM. Besides, the IC50 under setting [2] came out at 1170 nM.

In the case of `CC(C)NP(=O)(OCc1ccc([N+](=O)[O-])c(Oc2ccc(-c3ccc(F)cc3)cc2)c1)OCC1OC(n2ccc(N)nc2=O)C(F)(F)C1O` (stereo not drawn) [Compound H38], the “specific activation ratio” value came to 507.6. Also, under setting [1], the IC50 was 65.2 nM. Also, under setting [2], the IC50 came out at 33100 nM.

For the molecule `CC(C)NP(=O)(OCc1ccc([N+](=O)[O-])c(Oc2ccc(-c3ccc(C(F)(F)F)cc3)cc2)c1)OCC1OC(n2ccc(N)nc2=O)C(F)(F)C1O` (stereo not drawn) [Compound H39], the “specific activation ratio” value amounted to 12.7. Moreover, under setting [1], the IC50 was determined as 2180 nM. In addition, the IC50 under setting [2] was 27700 nM.

Consider `CC(C)NP(=O)(OCc1ccc([N+](=O)[O-])c(Oc2ccc(-c3ccc(Cl)cc3)cc2)c1)OCC1OC(n2ccc(N)nc2=O)C(F)(F)C1O` (stereo not drawn) [Compound H40], for which the “specific activation ratio” value was 86.9. Besides, the IC50 under setting [1] is 194 nM. Besides, the IC50 under setting [2] came to 16900 nM.

Consider `CC(C)NP(=O)(OCc1ccc([N+](=O)[O-])c(Oc2ccc(-c3ccc(Cl)cc3)c(F)c2)c1)OCC1OC(n2ccc(N)nc2=O)C(F)(F)C1O` (stereo not drawn) [Compound H42], for which the “specific activation ratio” value was 333.5. The IC50 under setting [1] was found to be 57.1 nM. In addition, the IC50 under setting [2] is 19000 nM.

For `CC(C)NP(=O)(OCc1ccc([N+](=O)[O-])c(Oc2ccc(-c3ccccc3F)cc2)c1)OCC1OC(n2ccc(N)nc2=O)C(F)(F)C1O` (stereo not drawn) [Compound H43], the “specific activation ratio” value came out at 257.8. The IC50 under setting [1] amounted to 60 nM. The IC50 under setting [2] turned out to be 15500 nM.

Regarding `CC(C)NP(=O)(OCc1ccc([N+](=O)[O-])c(Oc2ccc(-c3cccc(F)c3)cc2)c1)OCC1OC(n2ccc(N)nc2=O)C(F)(F)C1O` (stereo not drawn) [Compound H44], the “specific activation ratio” value is 336.1. Under setting [1], the half-maximal inhibitory concentration (IC50) came out at 51.3 nM. Moreover, the IC50 under setting [2] is 17300 nM.
